Test [1] addresses T1, Indoleamine 2,3-dioxygenase 1 (Homo sapiens, UniProt P14902). The experiment in a line: Inhibition of human recombinant N-terminus 6X-histidine-tagged indoleamine 2,3-dioxygenase expressed in Escherichia coli assessed as inhibition of L-tryptophan to N-formylkynurenine formation measured as residual enzyme activity incubated for 10 mins prior to substrate addition measured after 30 mins by UV-vis spectrophotometric analysis relative to DMSO-treated control.
Target sequence in this assay (P14902 whole entry): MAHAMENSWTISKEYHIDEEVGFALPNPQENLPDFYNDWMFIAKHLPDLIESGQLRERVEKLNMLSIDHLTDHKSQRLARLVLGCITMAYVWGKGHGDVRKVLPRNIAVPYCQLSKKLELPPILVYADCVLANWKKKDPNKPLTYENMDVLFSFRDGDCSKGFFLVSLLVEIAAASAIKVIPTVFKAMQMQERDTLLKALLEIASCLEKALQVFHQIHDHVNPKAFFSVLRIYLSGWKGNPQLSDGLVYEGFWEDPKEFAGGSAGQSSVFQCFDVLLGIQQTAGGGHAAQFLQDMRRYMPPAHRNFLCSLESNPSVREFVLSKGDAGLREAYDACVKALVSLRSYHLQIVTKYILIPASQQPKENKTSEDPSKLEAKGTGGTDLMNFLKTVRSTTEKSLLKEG

Test [2] addresses T1, Indoleamine 2,3-dioxygenase 1. The experiment in a line: Inhibition of human recombinant N-terminus 6X-histidine-tagged indoleamine 2,3-dioxygenase expressed in Escherichia coli assessed as inhibition of L-tryptophan to N-formylkynurenine formation measured as residual enzyme activity at 0.1 uM incubated for 10 mins prior to substrate addition measured ….
Target sequence in this assay (P14902 whole entry, looked up): as the sequence (P14902 whole entry) above
Test [3] shares this target. In words: Inhibition of human recombinant N-terminus 6X-histidine-tagged indoleamine 2,3-dioxygenase expressed in Escherichia coli assessed as inhibition of L-tryptophan to N-formylkynurenine formation measured as residual enzyme activity at 1 uM incubated for 10 mins prior to substrate addition measured …; values are per cent of control.
Target sequence in this assay (P14902 whole entry, looked up): as the sequence (P14902 whole entry) above
Test [4] shares this target. In words: Inhibition of human recombinant N-terminus 6X-histidine-tagged indoleamine 2,3-dioxygenase expressed in Escherichia coli assessed as inhibition of L-tryptophan to N-formylkynurenine formation measured as residual enzyme activity at 10 uM incubated for 10 mins prior to substrate addition measured …; values are per cent of control.
Target sequence in this assay (P14902 whole entry, looked up): as the sequence (P14902 whole entry) above

By IC50 is commonly meant the midpoint of a concentration-inhibition curve. Broadly, the Ki is a dissociation constant, usually derived from enzyme kinetics or from competition with a known ligand. In general, residual activity refers to the signal under treatment as a percentage of the control signal.

Turning to `Nc1c(C(=O)O)c2nc3c(C(=O)O)cccc3oc-2cc1=O` [CINNABARINIC ACID], the IC50 in test [1] is 460 nM. The Ki in test [1] turned out to be 326 nM. Moreover, the results for the residual activity in test [2], in test [3] and in test [4] were 71%, 23% and 11%, respectively.
With `CC(=O)Nc1cc2nc3cc(CO)ccc3oc-2cc1=O`, the residual activity in test [2] was 85%; in test [3] it was 82%; in test [4], 74%.
Take `COC(=O)c1c2nc3c(C(=O)OC)cccc3oc-2cc(=O)c1N`: the residual activity was found to be 94% in test [2], 60% in test [3] and 30% in test [4].
On the same counts, the results for `Cc1c2nc3c(C)cccc3oc-2cc(=O)c1N` are 98%, 100% and 95%.
On the same counts, the results for `Nc1cc2nc3c(O)cccc3oc-2cc1=O` are 100%, 100% and 97%.
Take `Nc1cc2nc3ccccc3oc-2cc1=O`: the residual activity came to 82% in test [2], 94% in test [3] and 74% in test [4].
Regarding `COC(=O)c1c2nc3c(C(=O)OC)ccc(C)c3oc-2c(C)c(=O)c1N`, the residual activity in test [2] came out at 66%; in test [3], 29%; in test [4], 24%.
On the same counts, the results for `Nc1cc2nc3cc(CO)ccc3oc-2cc1=O` are 84%, 87% and 80%.
`CC(=O)Nc1cc2nc3c(O)cccc3oc-2cc1=O`: the figures for the residual activity in test [2], in test [3] and in test [4] were 100%, 99% and 92%, respectively.
On the same counts, the results for `COC(=O)c1c2nc3cc(CO)ccc3oc-2cc(=O)c1N` are 95%, 75% and 34%.
`Cc1ccc2oc3cc(=O)c(N)cc-3nc2c1`: the results for the residual activity in test [2], in test [3] and in test [4] were 99%, 100% and 91%, respectively.

The values above are taken from ChEMBL document CHEMBL2321779, “Aminophenoxazinones as inhibitors of indoleamine 2,3-dioxygenase (IDO). Synthesis of exfoliazone and chandrananimycin A” (J Med Chem, 2013).
